Measurements published in patent publication US20040166079A1, “N-Lauroyl amino acid composition for slimming the human body” (priority 2003, published 2004).

Key:
lipoprotein lipase (LPL) = experiment: Measurement of the activity of lipoprotein lipase (PNPB hydrolysis, 400 nm); type: biochemical, pseudomonas species; details: relative to the control
Procedure: Lipoprotein lipase (LPL) is an enzyme found in the extracellular compartment of adipocytes. It brings about the hydrolysis of the triglycerides contained in the chylomicrons to fatty acids and glycerol. The latter can thus penetrate into the adipocytes to be stored therein. […] It is based on an enzymatic test using a purified enzyme. A lipoprotein lipase (SIGMA, pseudomonas species) is incubated in the presence of a substrate, p-nitrophenyl butyrate (PNPB), which absorbs light at 400 nm after hydrolysis. [drawing 6] The enzyme, at 20 U/ml, is incubated in the presence of the test product and PNPB, at 0.9 mM. The kinetics of appearance of p-nitrophenol is performed at 37° C. for 10 minutes. It is monitored by measuring the absorbance at 400 nm. The results are presented in the following table, as a percentage inhibition of the lipoprotein lipase activity relative to the control.

human recombinant MMP-9 = target: T1, human recombinant MMP-9 (Homo sapiens, UniProt P14780); experiment: Measurement of the activity of metalloproteinase MMP-9 (DQ-gelatin fluorescence); type: biochemical; details: incubation concentration 0.1 % DE; relative to the control
T1 construct: purchased CALBIOCHEM PF024
T1 sequence (P14780 107-707 limits assumed): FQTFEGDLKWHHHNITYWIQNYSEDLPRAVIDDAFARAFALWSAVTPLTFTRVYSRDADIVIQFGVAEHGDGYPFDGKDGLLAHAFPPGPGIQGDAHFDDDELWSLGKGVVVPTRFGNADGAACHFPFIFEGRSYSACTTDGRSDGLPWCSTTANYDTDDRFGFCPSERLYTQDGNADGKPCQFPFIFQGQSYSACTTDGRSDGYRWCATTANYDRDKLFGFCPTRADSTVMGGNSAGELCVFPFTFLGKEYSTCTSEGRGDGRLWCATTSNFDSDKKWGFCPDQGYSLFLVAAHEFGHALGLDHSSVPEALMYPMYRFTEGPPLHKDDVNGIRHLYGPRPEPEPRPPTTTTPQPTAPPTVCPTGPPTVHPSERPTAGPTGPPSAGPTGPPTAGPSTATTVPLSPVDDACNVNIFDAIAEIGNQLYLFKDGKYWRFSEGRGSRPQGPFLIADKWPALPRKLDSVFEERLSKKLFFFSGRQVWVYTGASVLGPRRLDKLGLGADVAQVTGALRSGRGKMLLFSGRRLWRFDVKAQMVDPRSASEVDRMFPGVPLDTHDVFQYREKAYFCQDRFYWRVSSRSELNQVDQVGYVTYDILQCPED
Procedure: (§1) The objective of this test is to evaluate the inhibitory capacity of a product on the enzymatic activity of MMP-2 and MMP-9. This test is based on an enzymatic reaction between purified MMP-2 or MMP-9 and a specific substrate containing a chromophore. The degradation of the chromogenic substrate by the enzyme leads to the production of fluorescence monitored by fluorimetry.
(§2) (i)—A human recombinant MMP-9 (CALBIOCHEM, PF024) is incubated, at 0.05 μg/ml, in the presence of the product and the chromogenic substrate, DQ-gelatin conjugated with fluorescein (MOLECULAR PROBE, D12054) at 10 μg/ml. The reaction mixture is incubated overnight at room temperature, protected from light. The quantity of DQ-gelatin degraded is measured by fluorescence (Ex: 355 nm; Em: 460 nm).
(§3) The reactivity of the enzymatic system is systematically monitored for the measurement of the effect of a metalloproteinase inhibitor, 1,10-phenanthroline. The results are presented in the following table, as a percentage inhibition of the enzymatic activity of MMP-2 and MMP-9 relative to the control.

human recombinant MMP-2 = target: T2, human recombinant MMP-2 (Homo sapiens, UniProt P08253); experiment: Measurement of the activity of metalloproteinase MMP-2 (DQ-gelatin fluorescence); type: biochemical; details: incubation concentration 0.1 % DE; relative to the control
T2 construct: purchased CALBIOCHEM PF023
T2 sequence (P08253 110-660): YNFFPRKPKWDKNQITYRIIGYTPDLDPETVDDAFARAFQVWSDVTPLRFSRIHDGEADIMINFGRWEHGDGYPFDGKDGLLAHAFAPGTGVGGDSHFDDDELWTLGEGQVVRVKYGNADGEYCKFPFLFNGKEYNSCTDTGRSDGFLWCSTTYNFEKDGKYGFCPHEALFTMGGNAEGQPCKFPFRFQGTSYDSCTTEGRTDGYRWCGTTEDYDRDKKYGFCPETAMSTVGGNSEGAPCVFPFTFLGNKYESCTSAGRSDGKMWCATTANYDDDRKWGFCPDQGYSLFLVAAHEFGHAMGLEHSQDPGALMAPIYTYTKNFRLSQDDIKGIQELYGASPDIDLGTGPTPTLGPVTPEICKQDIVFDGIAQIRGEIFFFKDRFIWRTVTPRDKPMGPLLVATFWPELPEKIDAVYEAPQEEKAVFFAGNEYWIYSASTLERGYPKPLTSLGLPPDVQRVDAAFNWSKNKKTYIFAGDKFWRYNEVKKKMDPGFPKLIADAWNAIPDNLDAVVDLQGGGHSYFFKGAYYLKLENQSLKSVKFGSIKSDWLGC
Procedure: as §1
as §2, with “(ii)—A” for “(i)—A”, “MMP-2” for “MMP-9”, “PF023)” for “PF024)”, “0.1” for “0.05”
as §3

Cn1c(=O)c2c(ncn2C)n(C)c1=O [Caffeine, 1,3,7-trimethyl-xanthine]
0%: Percentage inhibition of LPL (lipoprotein lipase (LPL); incubation concentration 0.01 % DE) | Percentage inhibition of LPL (lipoprotein lipase (LPL); incubation concentration 0.1 % DE) | MMP-9 inhibiting effect (human recombinant MMP-9) | MMP-2 inhibiting effect (human recombinant MMP-2)
